Measured values reported in patent US7341991B2, “Inhibitors of amyloid precursor protein processing” (Posco, priority 2004, dated 2008).
“Also recorded” adds a separate entry of the source. Primed or numbered codes have the meaning given here. Where no end group is shown, it is not given here. [ ]: non-standard residue; d: D form. FITC′ = fluorescein isothiocyanate label; Ahx = NCCCCCC(=O)O

Assays:
[1] = test system: cleavage of Substrate M by rhBACE (recombinant human β-secretase); assay: Fluorometric (FRET) assay for cleavage of F-Substrate M by β-secretase; assay type: biochemical; conditions: for inhibitory activity of deletion peptides on cleavage of Substrate M: 10 inhibitor/substrate ratio, Substrate M 50 μM; for inhibitory activity group on Substrate M cleavage: tested at various concentrations (FIG. 8); for inhibition of cleavage of Substrate M by β-secretase: in vitro
Text: This assay system utilizes fluorescence resonance energy transfer (FRET) technology. Substrate M was synthesized with two fluorophores, a fluorescent donor and a proprietary quenching acceptor (purchased from a commercial source, R&D Systems). […] Upon cleavage of substrate by β-secretase, the fluorophore is separated from the quenching group, restoring the full fluorescence yield of donor.
Substrate labeled with fluorophores will be called F-Substrate M (R&D Systems). Recombinant human β-secretase will be called rhBACE (recombinant human β-site APP cleavage enzyme) (purchased from R&D systems).
[…] Cleavage by rhBACE was detected by reading emitted fluorescence level.
In this assay system, fluorescence resonance energy transfer (FRET) technology was utilized. […] After pre-incubation, substrate and HC peptide mixture in assay buffer was transferred to FluoroNunc™ 96 well white plate (Nunc, Roskilde, Denmark), and rhBACE1 (70 nM) was added. Time-dependent emission of fluorescence (excitation at 320 nm, emission at 405 nm) was monitored in a Molecular Devices SpectraMax Gemini EM fluorescence reader (CA, USA) for 1 h at 37° C. All assays were carried out in duplicate.

[2] = test system: Aβ production in HEK 293-APP cells; assay: Measurement of Aβ level in culture media (Aβ1-40 immunoassay); assay type: cell-based, human; conditions: HEK293-APP cells
Experimental: Human embryonic kidney (HEK) 293 cells stably transformed with the gene for APP695 (HEK 293-APP) were used for studies on the inhibitory activity of HC peptides. HEK 293-APP cells were generously supplied by Dr. T W Kim (Columbia University, NY, USA). HEK 293-APP cells were cultured in Dulbecco's Modified Eagle's Medium (DMEM) (Invitrogen, CA, USA) with 10% fetal bovine serum (HyClone, UT, USA) and 300 μg/ml of geneticin (Invitrogen, CA, USA) in a humidified atmosphere of 5% CO2, 95% air at 37° C. Cells were subcultured after trypsinization, and the medium was changed every 2-3 days.
The culture media from the peptide-treated cells (see above) was harvested and centrifuged at 3500×g for 10 min. Amount of Aβ in the supernatant was determined with human Aβ1-40 immunoassay kits (Signal Select™, BioSource, CA, USA) according to the instruction provided by the company.

[3] = test system: cleavage of APP by BACE1 (CTFβ) in HEK 293-APP cells; assay: Level of CTFβ in treated cells (immunoblot, 6E10); assay type: cell-based, human; conditions: HEK293-APP cells; for accumulation of cleavage product CTFβ: 9 h
Experimental: When the confluency of the cells reached 90%, the cells were washed with PBS once, and HC peptide in serum free DMEM was added to the cells. […] The lysed cells were centrifuged at 12000×g for 10 min at 4° C. The protein in the supernatant was determined by bicinchoninic acid assay (Pierce, IL, USA) [Smith, P. K., Krohn, R. I., Hermanson, G. T., Mallia, A. K., Gartner, F. H., Provenzano, M. D., Fujimoto, E. K., Goeke, N. M., Olson, B. J., and Klenk, D. C. […] After electrophoresis, the proteins in the gel were electrophoretically transferred onto a polyvinylidene difluoride (PVDF) membrane at 100 mA for 80 min. The blotted membrane was fixed with 0.2% glutaraldehyde in PBS for 45 min at RT and treated for 5 min in boiling PBS. CTFβ (the C-terminal fragment of APP generated by BACE1) was detected by treatment of the membrane with 0.5 μg/ml of anti-Aβ N terminal 6E10 antibody (Signetlabs, Inc., MA, USA) followed by incubation with 0.2 μg/ml of anti-mouse antibody coupled with HRP (Amersham Biosciences Ltd. Uppsala, Sweden). The developed film was scanned and the density of CTFβ band was determined by Scion Image Program (Scion Corporation, MD, USA).

[4] = target: T1, Substrate W (SEVKMDAEFR, β-secretase cleavage site of wild type APP) (Homo sapiens, UniProt P05067); assay: Binding of biotin-labeled Substrate W to immobilized complementary (HC) peptides; conditions: biotin-labeled Sub W, peptide immobilized on plate
T1 construct: purchased Peptron, Inc; host or cells: chemical synthesis
Experimental: (§1) Complementary peptides (0.2, 2, 20, and 200 μM) were dissolved in phosphate buffered saline (PBS) (pH 7.4) and fixed to microtiter wells for 5 hr at 37° C. The wells were blocked with blocking buffer (3% BSA/PBS) for 1 hr at 37° C. Either N-terminally biotinylated Substrate W or M (20 μM) in blocking buffer was added and incubated for overnight at 4° C. Streptavidin-horseradish peroxidase in blocking buffer was added to detect resulting bound substrates. The plate was incubated for 2 hr at room temperature (RT), followed by addition of 3, 3′, 5,5′-tetramethyl-benzidine (TMB) as substrate for horseradish peroxidase for color reaction.
In particular, for Substrate W, complementary peptides (200 μM) dissolved in phosphate buffered saline (PBS) (pH 7.4) were chemically coupled to Reacti-Bind Maleic Anhydride Activated Polystyrene wells (Pierce Biotechnology, Inc.) for overnight at room temperature (RT). Remaining active sites of the plate were inactivated by adding ethanolamine (1 M) for 1 hr at RT. The wells were blocked with blocking buffer (3% BSA/PBS) for 1 hr at RT. N-terminally biotinylated Substrate W (20 μM) in blocking buffer was added and incubated for 3 hr at RT. Streptavidin-horseradish peroxidase in blocking buffer was added to detect resulting bound substrates. The plate was incubated for 2 hr at room temperature (RT), followed by addition of 3,3′,5,5′-tetramethyl-benzidine (TMB) as substrate for horseradish peroxidase for color reaction.
(§2) Reacti-Bind™ maleic anhydride-activated polystyrene plate (Pierce, IL, USA) was coated with 50 μl of HC peptide (200 μM in distilled water) by chemical coupling for 3 h at room temperature (RT) and washed three times with phosphate buffered saline (PBS) containing 0.05% tween 20 (PBST). The plate was blocked with blocking buffer (0.5% gelatin in PBS) for 1 h at RT. After discarding blocking buffer, biotinylated BACE1 substrates (200 μM) in blocking buffer was applied on the plate and incubated for 2.5 h at RT. Each well was washed three times with PBST. The bound biotinylated BACE1 substrates were detected by incubation with streptavidin-horseradish peroxidase (Str-HRP, 125 mU/ml in blocking buffer) for 2 h at RT. Color reaction was carried out with 50 μl of 3,3′,5,5′-Tetramethylbenzidine Liquid Substrate (Sigma-Aldrich, MO, USA). After stopping the reaction by addition of an equal volume of 1 N HCl, absorbance at 450 nm was read in an automated ELISA reader (EL 312e, Bio-Tek Instruments, VT, USA). All assays were carried out in duplicate.

[5] = test system: Substrate M (SEVNLDAEFR, β-secretase cleavage site of APPsw); assay: Binding of biotin-labeled Substrate M to immobilized complementary (HC) peptides; conditions: biotin-labeled Sub M, peptide immobilized on plate
Experimental: as §1, §2

[6] = test system: APP processing in HEK293-APP cells; assay: Cell based assay of APP processing (βCTF, Western blot) in HEK293-APP cells; parameters: species or system human
Experimental: In the neuronal cells of the brain, APP is processed by α-secretase or β-secretase. To investigate the effects of the inhibitors on the cell, a cell based assay system was developed as described in FIG. 10. C-terminal fragment of APP remaining on the cell membrane was detected by Western blot. The resulting C-terminal fragments, αCTF or βCTF are further processed by γ-secretase. However, if the cells are treated with the γ-secretase inhibitor, this processing is blocked. As a result, αCTF or βCTF accumulate in the cell. If β-secretase inhibitor or APP inhibitor is added, this processing is blocked and βCTF disappears.
To test APP inhibitor activities in cells, three complementary peptides, c-Sub M, c-Sub MΔC6, and c-Sub MΔN1C1, which show high absorbance in binding test, were added to whole cell extracts of HEK293-APP cells (Lanes 2, 3, and 4 in FIG. 11). In addition, γ-secretase inhibitor and cholesterol were added to the cells to increase βCTF level. Commercially available peptide-based β-secretase inhibitor was included as control (Lane 6, FIG. 11). To detect the N-terminal fragment of β-amyloid which is a product of APP processing, 6E10 antibody was employed. […] Recently, it has been reported that the commercially available peptide-based inhibitor had to be linked to an oligoarginine transporter peptide to have inhibitory activity against cells. Therefore, mimetic approach is adopted to produce cell permeable analogs. (Chang et al. J. Neurochemistry 2004; 89:1409-1416).
After confirming the ability of the oligo-arginine coupled APP inhibitors to enter the cells, the inhibitors were applied to HEK293-APP cells overexpressing APP to test their inhibitory activities on APP processing. […] This inhibitor started to show significant inhibitory activity beginning from 0.1 μM (lower panel).

Substance: CIQI (CIQI-NH2) [C-Sub MΔN3C3]
- inhibitory activity of deletion peptides on cleavage of Substrate M [1]: considerable inhibitory activity
- inhibitory activity group on Substrate M cleavage [1]: medium activity

Substance: CIQIHF (CIQIHF-NH2) [c-Sub M ΔN3C1]
- inhibitory activity of deletion peptides on cleavage of Substrate M [1]: considerable inhibitory activity
- inhibitory activity for cleavage of f-Sub M by rhBACE1 ([1]; HC peptide 0.5 mM, f-Sub M 10 μM (Table 2)): without sacrificing the inhibitory activity too much
- inhibition of cleavage of Substrate M by β-secretase ([1]; rhBACE1): maintains much of the original activity of c-Sub M; also recorded: less active than longer HC peptide
- inhibitory activity relative to c-Sub M ΔN1C1 ([1]; substrate concentration 10 μM): about one tenth
- inhibitory activity group on Substrate M cleavage [1]: less activity

Substance: NH2-(CH2)5-CO—Cys-Ile-Gln-Ile-His-Phe-NH2 ([Ahx]CIQIHF-NH2; N-terminus assumed; SMILES CC[C@H](C)[C@H](NC(=O)[C@H](CCC(N)=O)NC(=O)[C@@H](NC(=O)[C@H](CS)NC(=O)CCCCCN)[C@@H](C)CC)C(=O)N[C@@H](Cc1c[nH]cn1)C(=O)N[C@@H](Cc1ccccc1)C(N)=O) [AHX-c-Sub M ΔN3C1]
- in vitro inhibitory activity relative to non-modified c-Sub M ΔN3C1 ([1]; f-Sub M, rhBACE1): half
- reduction of amount of Aβ released ([2]; 6.25 μM, 9 h): about 70%
- inhibition of Aβ production / APP processing in the cells [2]: reduced in a concentration dependent manner
- forms of CTFβ whose accumulation is inhibited [3]: both forms
- accumulation of cleavage product CTFβ [3]: inhibited accumulation

Substance: RLHFYLRLKA [Sub W-c]
- binding to Substrate W [4]: do not bind
- inhibition of cleavage of Substrate M by β-secretase ([1]; rhBACE1): do not inhibit cleavage

Substance: RLHLDLRLKA [Sub M-c]
- binding to Substrate M [5]: do not bind and not
- inhibitory activity for cleavage of f-Sub M by rhBACE1 ([1]; HC peptide 1 mM, f-Sub M 10 μM): not
- inhibition of cleavage of Substrate M by β-secretase ([1]; rhBACE1): do not inhibit cleavage

Substance: SEFC [c-Sub MΔC6]
- inhibitory activity on APP processing ([6]; βCTF): none of the inhibitors tested showed inhibitory activity

Substance: SEFCI (SEFCI-NH2) [c-SubM ΔC5]
- inhibitory activity group on Substrate M cleavage [1]: medium activity

Substance: SEFCIHLHFR (SEFCIHLHFR-NH2) [c-Sub W]
- binding to Substrate M [5]: weak but significant binding
- binding to Substrate W [4]: bind
- inhibitory activity for cleavage of f-Sub M by rhBACE1 ([1]; HC peptide 1 mM, f-Sub M 10 μM): higher inhibitory activity
- inhibition of cleavage of Substrate M by β-secretase ([1]; rhBACE1): inhibit cleavage
- inhibitory activity group on Substrate M cleavage [1]: medium activity

Substance: SEFCIQI (SEFCIQI-NH2) [c-SubM ΔC3]
- inhibitory activity group on Substrate M cleavage [1]: most active

Substance: SEFCIQIHF [c-Sub M ΔC1]
- binding to Substrate M [5]: relatively high binding activity

Substance: c-Sub M-R9: c-Sub M coupled with oligo-arginine (9 Arginines), labeled with FITC using a linker AHX ({FITC′-Ahx}-SEFCIQIHFRRRRRRRRRR)
- inhibition of cleavage of Substrate M by β-secretase ([1]; rhBACE1): no inhibitory activity
- inhibitory activity on APP processing ([6]; 10 μM): no inhibitory activity
- inhibitory activity on APP processing ([6]; low concentration): some inhibitory activity

Substance: c-Sub MΔN1C1-R9: c-Sub MΔN1C1 coupled with oligo-arginine (9 Arginines), labeled with FITC using a linker AHX ({FITC′-Ahx}-EFCIQIHFRRRRRRRRR)
- inhibition of cleavage of Substrate M by β-secretase ([1]; rhBACE1): less inhibitory activity
- inhibitory activity on APP processing ([6]; βCTF): inhibitory activity in a concentration dependent manner

Substance: β-secretase inhibitor IV [reference compound]
- inhibition of production of Aβ ([2]; 2 μM): about 90%
- forms of CTFβ whose accumulation is inhibited [3]: only the nonphosphorylated form
- accumulation of cleavage product CTFβ [3]: inhibited accumulation
